Measurements reported in patent publication US20200054646A1, “USE OF PHENOTHIAZINE DERIVATIVE IN THE TREATMENT OF INFECTIOUS PURPURA OR PURPURA FULMINANS” (priority 2016, published 2020).

Key:
[1] = test system: N. meningitidis Nm2C4.3 strain; experiment: Bactericidal activity on N. meningitidis in liquid culture (colony forming unit count); type: cell-based, Neisseria meningitidis; details: for viable count of the culture that contained 10^7 CFU/ml: 15 min treatment
Experimental: N. meningitidis Nm2C4.3 strain grown in liquid culture at 10^7 CFU/ml were treated with increasing concentrations of Trifluoperazine (10 to 50 μM) or Gentamicin (150 μg/ml) for 15 minutes (A) Bactericidal activity was determined by the count of colony forming units on GCB agar plates 24 h after treatment. (B) Images of the non-treated bacteria or bacteria treated with 30 μM TFP grown for 24 h on GCB agar plates.
Nm2C4.3, a piliated capsulated Opa^−Opc^− variant of the serogroup C meningococcal clinical isolate 8013, was cultured in Dulbecco's Modified Eagle Medium (DMEM) 4.5 g/L-Glutamax media 0,1% BSA during two hours at 37° C. 5% C02. A bacterial suspension at optical density (OD) 0.1 was then distributed in 24-well plate (1 ml/well). After 1 hour of incubation, Trifluoperazine (Sigma #T8516, stock solution in PBS) was added to obtain final concentrations of 10, 20, 30, 40, and 50 μM. Gentamicin (150 μg/ml in DMEM) and PBS alone were used as controls. After 15 min treatment, serial dilutions were performed in physiological water and 100 μl of each dilution were plated on Petri dishes containing GCB solid media (BD, Difco GC media) containing supplements, incubated overnight and the colony forming units were counted.

[2] = test system: HDMEC infected with Nm2C4.3; experiment: Cytoskeleton remodelling and endothelial cell junction integrity of infected HDMEC (Ezrin, Actin, VE-cadherin immunostaining); type: cell-based, human
Experimental: (A) Experimental procedure: HDMEC were infected for 2 h with Nm2C4.3, treated for 1 h with gentamicin (150 μg/ml) and then 15 min with Trifluoperazine (50 μM) (or solvent alone as a control) and left in medium for 1 h before fixation. (B) Upper panels: Representative fluorescence microscopy showing the effect on the endothelial cell cytoskeleton remodelling analysed by immunostaining of Ezrin and Actin. Lower panels: Effect on the endothelial cell junction integrity was analysed by immunostaining of Actin and VE-cadherin. (C) Quantification of the bacterial colonization (upper panel) Ezrin recruitment and cortical actin polymerization at sites of bacterial adhesion (lower panel) was performed using Image J software.
HDMECs were grown in their specific culture medium (Promocell #C-12210) and confluent monolayers were infected with 2C4.3. Briefly, bacteria were precultured in prewarmed cell culture medium for 1 h 30 min at 37° C. 5% CO2. The OD600 was adjusted to 0.1 and HDMECs were then overlaid with bacteria for 30 min (MOI of 100). Unbound bacteria were removed by three washes in cell culture media and infection was allowed to proceed for 1 h at 37° C. 5% CO2. Gentamicin was added at 150 μg/ml for 1 h, then after three washes in cell culture media, Trifluoperazine was applied where mentioned at 50 μM for 20 min. After three washes in cell culture media, cells were allowed to recover for 1 h in cell culture media. At the indicated time, cells were fixed with 4% Paraformaldehyde for 10 min. Immunolabelling was then performed as above described in example 4, using DAPI, Alexa Fluor 633 Phalloidin, Polyclonal antisera raised against Ezrin, obtained from Pr P. Mangeat (CRBM, Montpellier, France) and anti-human VE-Cadherin (eBioscience #BMS158). When indicated, HBMECs were grown on Thermanox coverslips coated with gelatin 2% for 2 days to reach confluency. Cells were then infected as above described in the presence or in the absence of 5 μM Trifluoperazine for 2 h. Cells were washed and fixed in 4% paraformaldehyde and immunolabelling was performed with a polyclonal antisera raised anti-Nm2C4.3 strain, anti-human PECAM-1 mouse monoclonal, clone HEC7 (ABCAM ab119339) or rabbit polyclonal 177 raised against PECAM-1, obtained from WA Muller (Northwestern University, Chicago, Ill., US), anti-[…] catenin (05-482, UBI), polyclonal antisera raised against Ezrin, Alexa Fluor 633 Phalloidin. Secondary antibodies were from Jackson ImmunoResearch Laboratories. Image acquisitions were performed on a Leica DM16000 with Yokogawa CSU-X1M1 system and CoolSnap HQ2 (Photometrics). Quantifications were done using ImageJ software (NIH).

[3] = test system: Nm2C4.3 microcolonies on HBMEC; experiment: Dispersion of meningococcal microcolonies at the surface of infected human endothelial cells; type: cell-based, Neisseria meningitidis
Experimental: Human […] microvascular endothelial cells (HBMEC) were infected with Nm2C4.3 for 1 h 30, treated with Trifluoperazine (10-40 μM) for 30 minutes, before fixation and immunofluorescence analysis using anti-Nm2C4.3 antibody and Alexa Fluor 633 Phalloidin. (A) Representative fluorescence microscopy showing bacterial colony (white dots) formed at the surface of the endothelial cells. (B) Quantification of the bacterial colonization was performed using Image J software.
HBMEC, a human endothelial cell line isolated from bone marrow capillaries (Schweitzer et al., 1997) were grown in Dulbecco's Modified Eagle Medium (DMEM) 4.5 g/L-Glutamax (ThermoFischer) 10% FBS. Cells were grown on Thermanox coverslips coated with gelatin 2% (BD Difco #214340) for 2 days to reach confluency. Cells were then infected with a suspension of Nm2C4.3 (˜10^7 CFU/ml) in DMEM/FBS during 30 minutes to allow bacterial adhesion. Cells were then washed three times with medium to remove non-adherent bacteria and infection was pursued for 1 h 30: adherent bacteria grew at the endothelial cell surface and formed micro-colonies. Trifluoperazine was then added to obtain final concentrations of 10, 20, 30 and 40 μM. After incubation for 30 minutes, cells were washed and fixed in 4% Paraformaldehyde for 10 min, washed three times with PBS, and permeabilized with 0.1% Triton X-100 in PBS for 10 min. Cells were blocked for 30 min with 3% BSA in PBS and were incubated for 2 h with the primary antibodies (Rabbit polyclonal anti-Nm2C4.3 strain, kindly provided by Dr X. Nassif, INEM, Paris). After three washes with PBS, cells were incubated for 1 h with […] anti-rabbit IgG (Jackson ImmunoResearch Laboratories), together with Alexa Fluor 633 Phalloidin (Thermofischer) and DAPI (0.5 mg ml-1, Sigma Aldrich) to stain Actin and nuclei, respectively. Labelled preparations were mounted in Glycergel media (DAKO) and image acquisitions were performed with a DM16000 microscope (Leica, X40). Quantification was done with ImageJ software (NIH). Results are presented as a vascular colonisation index corresponding to the area occupied by the fluorescently labelled bacteria per fields in relation to the area occupied by the fluorescently labelled human endothelial cells (Actin staining). Statistical analysis were performed with Student t test.

[4] = Gentamicin 150 μg/ml for 1 h alone
[5] = Trifluoperazine 50 μM in combination with gentamicin 150 μg/ml

SMILES | bactericidal effect (in words) ([1]; Gentamicin 150 μg/ml, 15 min) | Ezrin recruitment, cortical actin polymerization, VE-cadherin distribution under residual colonies [2, 4] | number of colonies present at the cell surface [2, 4] | dispersion of microcolonies at the endothelial cell surface ([3]; Gentamicin 150 μg/ml) | viable count of the culture that contained 10^7 CFU/ml ([1]; Trifluoperazine 50 μM) | viable count of the culture that contained 10^7 CFU/ml ([1]; Trifluoperazine 10 to 30 μM) | Ezrin recruitment under residual bacteria [2, 5] | dispersion of bacterial colonies at the endothelial cell surface [2, 5] | endothelial cell junction integrity (VE-cadherin staining, gaps between cells) [2, 5] | concentration range of dose-dependent microcolony dispersion ([3]; 30 min, HBMEC and primary HDMEC) | dispersion of compact microcolonies already established at the endothelial cell surface ([3]; treatment for 30 min, HBMEC (also HDMEC))
CN[C@@H]1[C@@H](O)C(O[C@@H]2[C@@H](O)[C@H](O[C@H]3O[C@H]([C@@H](C)NC)CC[C@H]3N)[C@@H](N)C[C@H]2N)OC[C@]1(C)O (stereo partly drawn) [Gentamicin, (3R,4R,5R)-2-{[(1S,2S,3R,4S,6R)-4,6-diamino-3-{[(2R,3R,6S)-3-amino-6-[(1R)-1-(methylamino)ethyl]oxan-2-yl]oxy}-2-hydroxycyclohexyl]oxy}-5-methyl-4-(methylamino)oxane-3,5-diol] | killed all bacteria | still induced Ezrin recruitment | reduced the number of colonies | poorly induced the dispersion | – | – | – | – | – | – | –
CN1CCN(CCCN2c3ccccc3Sc3ccc(C(F)(F)F)cc32)CC1 [Trifluoperazine] | – | – | – | – | 10^3 CFU/ml | 10^6 CFU/ml | Few Ezrin recruitment | induced the dispersion of most of the bacterial colonies | preserved endothelial cell junction integrity | 10 to 40 µM | induced their dispersion
